Measured values: patent US20100331331A1, “THERAPEUTIC COMPOSITIONS AND THE USE THEREOF” (priority 2007, published 2010)

Legend:
[1] = Similar studies of the effect of five protease inhibitors on the pharmacokinetics of the Compound; format: in vivo; details: protease inhibitors with ritonavir 100 mg QD to 200 mg BID
Protocol: These studies employed various doses of ritonavir (100 mg QD to 200 mg BID).

[2] = Pharmacokinetic interaction between atazanavir and the Compound: EVG/ATV versus EVG/r crossover in healthy subjects; details: for half-life: human, plasma
Protocol: This study evaluated the safety and steady-state pharmacokinetics of the co-administered Compound and ATV.
(§1) Healthy subjects received EVG/r 300/100 mg or EVG/ATV 300/400 mg in a randomized, crossover manner for 10 days each, with the last dose being coadministered with the CYP3A probe substrate midazolam (oral syrup; 5 mg) and pharmacokinetic (PK) sampling performed. […] ATV, midazolam, and ritonavir pharmacokinetics were also determined for descriptive statistics.

[3] = tested on: CYP3A; experiment: CYP3A probe substrate midazolam pharmacokinetics with EVG/ATV versus EVG/r; details: midazolam oral syrup 5 mg with last dose; EVG/ATV vs. EVG/r
Protocol: as §1

[4] = Pharmacokinetic interaction between atazanavir/r and the Compound, steady-state PK in healthy subjects (studies 1 and 2); format: in vivo, human; details: for AUCtau % GMR (90% CI) / Cmax % GMR (90% CI) / Ctau % GMR (90% CI): coadministration:alone, 14 days
Excerpt: In study 1, 33/61 and study 2, 19/30 subjects completed each study; discontinuations were mostly for known ATV adverse events.

[5] = ATV 400 mg coadministered with EVG 300 mg
[6] = Study 1, the Compound 200 mg (test and reference) + ATV/r 300/100 mg QD, n=33
[7] = Study 2, the Compound test 85 mg, reference 150 mg, ATV/r 300/100 mg QD, n=20
[8] = EVG/ATV 300/400 mg vs. EVG/r 300/100 mg, 10 days each, n=14

SMILES: COC(=O)N[C@H](C(=O)N[C@@H](Cc1ccccc1)[C@@H](O)CN(Cc1ccc(-c2ccccn2)cc1)NC(=O)[C@@H](NC(=O)OC)C(C)(C)C)C(C)(C)C [ATV, 1-[4-(pyridine-2-yl)-phenyl]-4(S)-2,5-bis-[N-(N-methoxycarbonyl-(L)-tert-leucyl)amino]-6-phenyl-2-axahexane, reference compound]
- effect on the pharmacokinetics of the Compound [1]: improved pharmacokinetic effect
- AUCtau and Ctau compared with historical data [2, 5]: lower than historical data
- Mean (% CV) Ctau [2, 5]: 74.5 (45.7%) ng/ml

SMILES: Cc1ncc2n1-c1ccc(Cl)cc1C(c1ccccc1F)=NC2 [midazolam]
- AUCinf geometric mean ratio (90% CI) [3]: 89.5 (80.7, 99.3) %
- Cmax geometric mean ratio (90% CI) [3]: 98.8 (89.6, 109) %

SMILES: COc1cc2c(cc1Cc1cccc(Cl)c1F)c(=O)c(C(=O)O)cn2[C@H](CO)C(C)C [the Compound, 6-(3-chloro-2-fluorobenzyl)-1-[(2S)-1-hydroxy-3-methylbutan-2-yl]-7-methoxy-4-oxo-1,4-dihydroquinoline-3-carboxylic acid]
- systemic exposure ([4]; 85 mg of the Compound with ritonavir-boosted atazanavir versus 150 mg dose of the Compound alone): equivalent
- AUCtau % GMR (90% CI) [4, 6]: 200%
- Cmax % GMR (90% CI) [4, 6]: 185%
- Ctau % GMR (90% CI) [4, 6]: 288%
- AUCtau % GMR (90% CI) [4, 7]: 107%
- Cmax % GMR (90% CI) [4, 7]: 90.9%
- Ctau % GMR (90% CI) [4, 7]: 138%
- exposures upon coadministration with ATV/r ([4]; coadministration with ATV/r): elevated
- systemic exposure ([2]; 300 mg of the Compound with atazanavir versus 300 mg with ritonavir): equivalent
- AUCtau geometric mean ratio (90% CI) [2, 8]: 107 (95.6, 119) %
- Cmax geometric mean ratio (90% CI) [2, 8]: 108 (99, 119) %
- Ctau geometric mean ratio (90% CI) [2, 8]: 89.9 (71.4, 113) %
- adverse events ([2]; EVG/r 300/100 mg or EVG/ATV 300/400 mg, 10 days each, healthy subjects): No grade 4 AE or serious AE were observed
- half-life ([2]; median T1/2, EVG/ATV 300/400 mg): 5.2 h
- half-life ([2]; median T1/2, EVG/r 300/100 mg): 6.3 h
